In ChEMBL document CHEMBL1146649, “New highly active taxoids from 9 beta-dihydrobaccatin-9,10-acetals. Part 5” (2004):
≈ marks a conversion by molar mass, not a printed value.

Experiments:
Type in all cases: functional
Mus musculus [1] = experiment: Maximum rate of body weight loss after intravenous administration of 12.0 mg/kg of compound in mice; <0 indicates no body weight loss
Mus musculus [2] = experiment: Maximum rate of body weight loss after peroral administration of 12.0 mg/kg of compound in mice; <0 indicates no body weight loss; conditions: route oral
Mus musculus [3] = experiment: Maximum rate of body weight loss after peroral administration of 18.0 mg/kg of compound in mice; conditions: route oral
Mus musculus [4] = experiment: Maximum rate of body weight loss after peroral administration of 27.0 mg/kg of compound in mice; conditions: route oral
Mus musculus [5] = experiment: Maximum rate of body weight loss after peroral administration of 8.0 mg/kg of compound in mice; <0 indicates no body weight loss; conditions: route oral
Mus musculus [6] = experiment: Antitumor activity of 12.0 mg/kg of intravenously administered compound against B16 melanoma BL6 cells implanted into mice, value reported is percent compared to control; conditions: route intravenous
Mus musculus [7] = experiment: Antitumor activity of 12.0 mg/kg of perorally administered compound against B16 melanoma BL6 cells implanted into mice, value reported is percent compared to control; conditions: route oral
Mus musculus [8] = experiment: Antitumor activity of 18.0 mg/kg of intravenously administered compound against B16 melanoma BL6 cells implanted into mice, value reported is percent compared to control; conditions: route intravenous
Mus musculus [9] = experiment: Antitumor activity of 18.0 mg/kg of perorally administered compound against B16 melanoma BL6 cells implanted into mice, value reported is percent compared to control; conditions: route oral
Mus musculus [10] = experiment: Antitumor activity of 27.0 mg/kg of perorally administered compound against B16 melanoma BL6 cells implanted into mice, value reported is percent compared to control; conditions: route oral
Mus musculus [11] = experiment: Antitumor activity of 5.3 mg/kg of intravenously administered compound against B16 melanoma BL6 cells implanted into mice, value reported is percent compared to control; conditions: route intravenous
Mus musculus [12] = experiment: Antitumor activity of 8.0 mg/kg of intravenously administered compound against B16 melanoma BL6 cells implanted into mice, value reported is percent compared to control; conditions: route intravenous
Mus musculus [13] = experiment: Antitumor activity of 8.0 mg/kg of perorally administered compound against B16 melanoma BL6 cells implanted into mice, value reported is percent compared to control; conditions: route oral
Mus musculus [14] = experiment: Maximum rate of body weight loss after intravenous administration of 18.0 mg/kg of compound in mice
Mus musculus [15] = experiment: Maximum rate of body weight loss after intravenous administration of 5.3 mg/kg of compound in mice; <0 indicates no body weight loss
Mus musculus [16] = experiment: Maximum rate of body weight loss after intravenous administration of 8.0 mg/kg of compound in mice; <0 indicates no body weight loss
Mus musculus [17] = experiment: Effective dose of intravenously administered compound against B16 melanoma BL6 cells implanted into mice; range is 5.3-18.0; conditions: B16, iv
Mus musculus [18] = experiment: Effective dose of perorally administered compound against B16 melanoma BL6 cells implanted into mice; range is 12.0-27.0; conditions: B16, po
Mus musculus [19] = experiment: Number of mice died at 12.0 mg/kg of intravenous dose of compound among the total 6 mice tested
Mus musculus [20] = experiment: Number of mice died at 12.0 mg/kg of peroral dose of compound among the total 6 mice tested; conditions: route oral
Mus musculus [21] = experiment: Number of mice died at 18.0 mg/kg of intravenous dose of compound among the total 6 mice tested
Mus musculus [22] = experiment: Number of mice died at 18.0 mg/kg of peroral dose of compound among the total 6 mice tested; conditions: route oral
Mus musculus [23] = experiment: Number of mice died at 27.0 mg/kg of peroral dose of compound among the total 6 mice tested; conditions: route oral
Mus musculus [24] = experiment: Number of mice died at 5.3 mg/kg of intravenous dose of compound among the total 6 mice tested
Mus musculus [25] = experiment: Number of mice died at 8.0 mg/kg of intravenous dose of compound among the total 6 mice tested
Mus musculus [26] = experiment: Number of mice died at 8.0 mg/kg of peroral dose of compound among the total 6 mice tested; conditions: route oral
P388 = experiment: Concentration required to inhibit mouse P388 cell line growth by 50% at 72 hr continuous exposure; conditions: P388, 72 h
PC-6 [27] = experiment: Concentration required to inhibit human PC-6 cell line growth by 50% at 72 hr continuous exposure; conditions: PC-6, 72 h
PC-6 [28] = experiment: Concentration required to inhibit human PC-6/VP1-1 cell line growth by 50% at 72 hr exposure; conditions: PC-6, 72 h
PC-12 = experiment: Concentration required to inhibit human PC-12 cell line growth by 50% at 72 hr continuous exposure; conditions: PC-12, 72 h
PC-6 [29] = experiment: Concentration required to inhibit human PC-6/VCR29-9 cell line growth by 50% at 72 hr exposure; conditions: PC-6, 72 h
Mus musculus [30] = experiment: Effective dose of intravenously administered compound against B16 melanoma BL6 cells implanted into mice; range is 3.5-5.3; conditions: B16, iv
B16 = experiment: Effective dose of perorally administered compound against B16 melanoma BL6 cells implanted into mice; conditions: Mus musculus, B16, po
PC-6 [31] = experiment: Concentration that inhibited the growth of PC-6/VCR29-9 cells by 50% at 72 hr continuous exposure; conditions: Homo sapiens, PC-6, 72 h
Mus musculus [32] = experiment: Maximum rate of body weight loss after peroral administration of 600 mg/kg of compound in mice; <0 indicates no body weight loss; conditions: route oral
Mus musculus [33] = experiment: Antitumor activity of 100 mg/kg of perorally administered compound against B16 melanoma BL6 cells implanted into mice, value reported is percent compared to control; conditions: route oral
Mus musculus [34] = experiment: Antitumor activity of 600 mg/kg of perorally administered compound against B16 melanoma BL6 cells implanted into mice, value reported is percent compared to control; conditions: route oral
Mus musculus [35] = experiment: Maximum rate of body weight loss after peroral administration of 100 mg/kg of compound in mice; conditions: route oral
Mus musculus [36] = experiment: Number of mice died at 100 mg/kg of peroral dose of compound among the total 6 mice tested; conditions: route oral
Mus musculus [37] = experiment: Number of mice died at 600 mg/kg of peroral dose of compound among the total 6 mice tested; conditions: route oral

CC(=O)O[C@@]12CO[C@@H]1C[C@H](O)[C@@]1(C)[C@@H]3OC(CN4CCOCC4)O[C@@H]3C3=C(C)[C@@H](OC(=O)[C@H](O)[C@@H](NC(=O)OC(C)(C)C)c4ccccn4)C[C@@](O)([C@@H](OCc4ccccc4)[C@H]21)C3(C)C (some centres undefined)
BWLmax (Mus musculus [1]): <0% | BWLmax (Mus musculus [2]): <0% | BWLmax (Mus musculus [3]): 0.3% | BWLmax (Mus musculus [4]): 4.5% | BWLmax (Mus musculus [5]): <0% | IR (Mus musculus [6]): 94.4% | IR (Mus musculus [7]): 84.9% | IR (Mus musculus [8]): 95.6% | IR (Mus musculus [9]): 93.3% | IR (Mus musculus [10]): 97.3% | IR (Mus musculus [11]): 62.4% | IR (Mus musculus [12]): 87.2% | IR (Mus musculus [13]): 27.2% | BWLmax (Mus musculus [14]): 3.7% | BWLmax (Mus musculus [15]): <0% | BWLmax (Mus musculus [16]): <0% | ED50 (Mus musculus [17]): 18 mg/kg | ED50 (Mus musculus [18]): 27 mg/kg | Mortality (Mus musculus [19]): 0 | Mortality (Mus musculus [20]): 0 | Mortality (Mus musculus [21]): 0 | Mortality (Mus musculus [22]): 0 | Mortality (Mus musculus [23]): 0 | Mortality (Mus musculus [24]): 0 | Mortality (Mus musculus [25]): 0 | Mortality (Mus musculus [26]): 0 | GI50 (P388): 0.18 ng/mL (≈ 0.198 nM) | GI50 (PC-6 [27]): 0.26 ng/mL (≈ 0.286 nM) | GI50 (PC-6 [28]): 0.0193 µg/mL (≈ 21.3 nM) | GI50 (PC-12): 0.13 ng/mL (≈ 0.143 nM) | GI50 (PC-6 [29]): 0.00243 µg/mL (≈ 2.68 nM)

CC(=O)O[C@@]12CO[C@@H]1CC[C@@]1(C)[C@@H]3O[C@H](CN4CCOCC4)O[C@@H]3C3=C(C)[C@@H](OC(=O)[C@H](O)[C@@H](NC(=O)OC(C)(C)C)c4cscn4)C[C@@](O)([C@@H](OCc4ccccc4)[C@@H]12)C3(C)C
ED50 (Mus musculus [30]): 5.3 mg/kg | ED50 (B16): 7.9 mg/kg | GI50 (P388): 0.03 ng/mL (≈ 0.0334 nM) | GI50 (PC-6 [27]): 0.65 ng/mL (≈ 0.724 nM) | GI50 (PC-6 [31]): 1.02 ng/mL (≈ 1.14 nM) | GI50 (PC-6 [28]): 0.00913 µg/mL (≈ 10.2 nM) | GI50 (PC-12): 0.08 ng/mL (≈ 0.0891 nM)

CC(=O)O[C@@]12CO[C@@H]1C[C@H](O)[C@@]1(C)C(=O)[C@H](O)C3=C(C)[C@@H](OC(=O)[C@H](O)[C@@H](NC(=O)OC(C)(C)C)c4ccccc4)C[C@@](O)([C@@H](OCc4ccccc4)[C@H]21)C3(C)C
BWLmax (Mus musculus [32]): <0% | IR (Mus musculus [33]): 95.1% | IR (Mus musculus [34]): 6.2% | BWLmax (Mus musculus [35]): <0% | Mortality (Mus musculus [36]): 0 | Mortality (Mus musculus [37]): 0 | GI50 (P388): 0.78 ng/mL (≈ 0.982 nM) | GI50 (PC-6 [27]): 0.26 ng/mL (≈ 0.327 nM) | GI50 (PC-6 [28]): 0.442 µg/mL (≈ 557 nM) | GI50 (PC-12): 19.1 ng/mL (≈ 24.1 nM) | GI50 (PC-6 [29]): 0.0621 µg/mL (≈ 78.2 nM)
